Results as given in patent US9676760B2, “Fused heterocyclic compounds as ion channel modulators” (Gilead Sciences, Inc., priority 2011, dated 2017).

What was measured:
[1] = target: T1, wild-type human cardiac sodium channel, hNav1.5 (Homo sapiens, UniProt Q14524); assay: Late INa screening assay (QPatch whole cell patch clamp, HEK293); type: cell-based; conditions: HEK293, percent block of late INa; compound at 1 μM; 10 μM Tefluthrin; read-out: Late INa 1 μM
Procedure, shortened: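 HEK293 stably expressing hNav1.5 without beta subunits, recorded at 23-25° C. Late current was induced by 10 μM tefluthrin. Cells were depolarized from −120 mV to −20 mV for 250 ms at 0.1 Hz. Compounds were tested at 1 μM in extracellular solution, with baseline taken in 0Na-ECF; output is percent block of late INa.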

[2] = target: T1, wild-type human cardiac sodium channel, hNav1.5; assay: Peak INa screening assay (tonic and use-dependent block); type: cell-based; conditions: compound at 1 μM
Description: The late sodium current (Late INa) and peak sodium current (Peak INa) assays are performed on an automated electrophysiology platform, QPatch 16× (Sophion Bioscience, Copenhagen, Denmark), which uses the whole cell patch clamp technique to measure currents through the cell membrane of up to 16 cells at a time. The assay uses an HEK293 (human embryonic kidney) cell line heterologously expressing the wild-type human cardiac sodium channel, hNav1.5, purchased from Millipore (Billerica, Mass.). No beta subunits were coexpressed with the Na channel alpha subunit. Cells are maintained with standard tissue culture procedures and stable channel expression is maintained with 400 μg/mL Geneticin in the culture medium. Cells isolated for use on QPatch are incubated for 5 minutes in Detachin 1×(Genlantis, San Diego, USA) at 37° C. to ensure that 80-90% of the cells are single and not part of a cell cluster. Experiments are carried out at 23-25° C.
For both the Late INa and Peak INa assays, series resistance compensation is set to 100% and series resistance and whole-cell compensation are performed automatically. Currents are digitized at 25 kHz and low-pass filtered at 12 kHz and 10 kHz for the late and peak INa assays, respectively. Currents through open sodium channels are automatically recorded and stored in the Sophion Bioscience Oracle database (Sophion Bioscience, Copenhagen, Denmark). Analysis is performed using QPatch Assay and database software and data are compiled in Excel.
Compound stocks are routinely made by the Gilead Sample Bank in plastic vials to 10 mM in dimethyl sulfoxide (DMSO). In some cases, when compounds are not soluble in DMSO, they are made in 100% ethanol. Stocks are sonicated as necessary. The extracellular solution for screening Late INa is composed of: 140 mM NaCl, 4 mM KCl, 1.8 mM CaCl2, 0.75 mM MgCl2 and 5 mM HEPES with pH adjusted to 7.4 using NaOH. The intracellular solution used to perfuse the inside of the cells for both the Late INa and Peak INa assays contains: 120 mM CsF, 20 mM CsCl, 5 mM EGTA, 5 mM HEPES and pH adjusted to 7.4 with CsOH. Compounds are diluted in extracellular solution to 1 μM in glass vials and then transferred to glass well plates before robotic addition to the cells. The 0 mM Na extracellular solution (0Na-ECF) used at the end of each experiment for the Late INa and Peak INa assays to measure baseline current contains: 140 mM N-methyl-D-glucamine; 4 mM KCl; 1.8 mM CaCl2; 0.75 mM MgCl2; 5 mM HEPES and pH was adjusted to 7.4 with HCl.
Compounds were also evaluated for their effect in several other assays, including their effect on Peak INa. […] Since the peak INa in the cells used herein can be very large, introducing artifacts in the recording, the concentration of Na^+ in the bath can be reduced to 20 mM and a nonpermeant cation added to compensate for the Na^+ that was removed to maintain the osmolarity and ionic strength of the solution (see solution details below).
A low stimulation frequency of 0.1 Hz was used to determine the effect of the test compound when the channel spent most of the time in the resting (closed) state and provides information about Tonic Block (TB). A higher stimulation frequency (3 Hz) was used to measure block of the channel when it spent more time in the activated and inactivated states and provided a measure of Use-Dependent Block (UDB). Use-dependent block refers to the accumulation of block with increased frequency of channel activation.

[3] = tonic block of peak INa, 0.1 Hz, read-out: Peak TB 1 μM
[4] = use-dependent block of peak INa, 3 Hz, read-out: Peak UDB 1 μM

T1 sequence (Q14524 whole entry): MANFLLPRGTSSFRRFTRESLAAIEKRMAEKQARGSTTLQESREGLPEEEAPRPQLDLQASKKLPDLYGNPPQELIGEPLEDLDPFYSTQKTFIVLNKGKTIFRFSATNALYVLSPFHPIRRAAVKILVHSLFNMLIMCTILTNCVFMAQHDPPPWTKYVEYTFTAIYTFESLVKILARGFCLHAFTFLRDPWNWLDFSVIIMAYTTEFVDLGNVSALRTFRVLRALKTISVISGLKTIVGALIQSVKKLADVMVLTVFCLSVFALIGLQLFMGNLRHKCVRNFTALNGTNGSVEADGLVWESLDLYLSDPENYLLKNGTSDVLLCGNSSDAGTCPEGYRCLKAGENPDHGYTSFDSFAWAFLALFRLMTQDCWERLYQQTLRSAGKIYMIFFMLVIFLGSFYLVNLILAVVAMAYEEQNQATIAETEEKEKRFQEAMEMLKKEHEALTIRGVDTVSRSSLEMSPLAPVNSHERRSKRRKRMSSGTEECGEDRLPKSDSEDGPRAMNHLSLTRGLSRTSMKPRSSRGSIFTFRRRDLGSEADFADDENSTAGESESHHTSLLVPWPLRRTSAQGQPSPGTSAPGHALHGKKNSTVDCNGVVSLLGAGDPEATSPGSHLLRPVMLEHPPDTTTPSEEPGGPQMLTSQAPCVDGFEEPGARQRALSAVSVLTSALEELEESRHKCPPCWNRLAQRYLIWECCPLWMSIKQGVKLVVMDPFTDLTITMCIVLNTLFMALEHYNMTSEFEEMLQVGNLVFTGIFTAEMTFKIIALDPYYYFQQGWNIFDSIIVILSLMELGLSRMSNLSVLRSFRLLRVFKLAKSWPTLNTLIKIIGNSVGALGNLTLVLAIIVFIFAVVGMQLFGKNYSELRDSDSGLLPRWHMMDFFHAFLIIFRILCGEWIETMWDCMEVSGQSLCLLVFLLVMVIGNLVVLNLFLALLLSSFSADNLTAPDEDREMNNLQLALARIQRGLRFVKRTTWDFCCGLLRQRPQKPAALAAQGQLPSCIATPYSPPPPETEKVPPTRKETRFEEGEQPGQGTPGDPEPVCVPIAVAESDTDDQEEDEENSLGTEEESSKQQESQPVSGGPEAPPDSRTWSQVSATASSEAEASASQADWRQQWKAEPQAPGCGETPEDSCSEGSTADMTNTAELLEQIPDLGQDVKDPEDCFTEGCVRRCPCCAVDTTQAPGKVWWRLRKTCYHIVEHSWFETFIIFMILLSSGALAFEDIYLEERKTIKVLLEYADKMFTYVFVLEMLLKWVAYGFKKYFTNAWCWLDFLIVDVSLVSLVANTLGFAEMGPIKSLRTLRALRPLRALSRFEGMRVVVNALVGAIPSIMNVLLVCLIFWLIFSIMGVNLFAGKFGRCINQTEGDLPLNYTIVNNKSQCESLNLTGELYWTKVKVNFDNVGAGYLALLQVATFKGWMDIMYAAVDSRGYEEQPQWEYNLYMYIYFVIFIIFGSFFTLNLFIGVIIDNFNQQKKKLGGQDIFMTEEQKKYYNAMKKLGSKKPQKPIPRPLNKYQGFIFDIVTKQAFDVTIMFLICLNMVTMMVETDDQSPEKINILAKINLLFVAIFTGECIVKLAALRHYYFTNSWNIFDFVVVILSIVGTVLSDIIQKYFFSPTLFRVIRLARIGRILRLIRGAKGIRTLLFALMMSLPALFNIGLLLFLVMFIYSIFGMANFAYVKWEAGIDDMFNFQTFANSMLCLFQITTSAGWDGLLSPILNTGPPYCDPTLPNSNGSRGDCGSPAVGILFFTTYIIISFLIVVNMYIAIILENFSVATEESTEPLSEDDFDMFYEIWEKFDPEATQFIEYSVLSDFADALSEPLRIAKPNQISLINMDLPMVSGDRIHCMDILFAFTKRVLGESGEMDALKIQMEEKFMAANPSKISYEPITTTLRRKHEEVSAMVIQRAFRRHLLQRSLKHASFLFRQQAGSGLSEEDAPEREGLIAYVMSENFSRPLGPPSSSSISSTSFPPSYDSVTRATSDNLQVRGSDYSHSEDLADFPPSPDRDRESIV

## O=C1c2cc(-c3ccc(C(F)F)cc3)ccc2OCCN1Cc1ccccn1 [II-157, 7-(4-(difluoromethyl)phenyl)-4-(pyridin-2-ylmethyl)-3,4-dihydrobenzo[f][1,4]oxazepin-5(2H)-one]
[1]
  inhibition at 1 µM: 43%
[2]; [3]
  inhibition at 1 µM: 13%
[2]; [4]
  inhibition at 1 µM: 16%

## O=C1c2cc(-c3ccc(Cl)c(F)c3)ccc2OCCN1Cc1ccccn1 [II-158, 7-(4-chloro-3-fluorophenyl)-4-(pyridin-2-ylmethyl)-3,4-dihydrobenzo[f][1,4]oxazepin-5(2H)-one]
[1]
  inhibition at 1 µM: 58%
[2]; [3]
  inhibition at 1 µM: 34%
[2]; [4]
  inhibition at 1 µM: 26%

## O=C1c2cc(-c3ccc(OC(F)(F)F)cc3)cc(F)c2OCCN1Cc1ccccc1 [II-165, 4-benzyl-9-fluoro-7-(4-(trifluoromethoxy)phenyl)-3,4-dihydrobenzo[f][1,4]oxazepin-5(2H)-one]
[1]
  inhibition at 1 µM: 56%
[2]; [3]
  inhibition at 1 µM: 15%
[2]; [4]
  inhibition at 1 µM: 30%

## O=C1c2cc(-c3ccc(C(F)(F)F)cc3)cc(F)c2OCCN1Cc1ccccc1 [II-166, 4-benzyl-9-fluoro-7-(4-(trifluoromethyl)phenyl)-3,4-dihydrobenzo[f][1,4]oxazepin-5(2H)-one]
[1]
  inhibition at 1 µM: 53%
[2]; [3]
  inhibition at 1 µM: 20%
[2]; [4]
  inhibition at 1 µM: 34%

## O=C1c2cc(-c3ccc(OC(F)(F)F)cc3)c(F)cc2OCCN1Cc1ccccc1 [II-167, 4-benzyl-8-fluoro-7-(4-(trifluoromethoxy)phenyl)-3,4-dihydrobenzo[f][1,4]oxazepin-5(2H)-one]
[1]
  inhibition at 1 µM: 56%
[2]; [3]
  inhibition at 1 µM: 20%
[2]; [4]
  inhibition at 1 µM: 25%

## O=C1c2cc(-c3ccc(C(F)(F)F)cc3)c(F)cc2OCCN1Cc1ccccc1 [II-168, 4-benzyl-8-fluoro-7-(4-(trifluoromethyl)phenyl)-3,4-dihydrobenzo[f][1,4]oxazepin-5(2H)-one]
[1]
  inhibition at 1 µM: 44%
[2]; [3]
  inhibition at 1 µM: 36%
[2]; [4]
  inhibition at 1 µM: 47%

## O=C1c2cc(-c3ccc(Cl)c(F)c3)ccc2OCCN1Cc1ncccc1F [II-169, 7-(4-chloro-3-fluorophenyl)-4-((3-fluoropyridin-2-yl)methyl)-3,4-dihydrobenzo[f][1,4]oxazepin-5(2H)-one]
[1]
  inhibition at 1 µM: 65%
[2]; [3]
  inhibition at 1 µM: 23%
[2]; [4]
  inhibition at 1 µM: 23%

## O=C1c2cc(-c3ccc(C(F)(F)F)cc3F)ccc2OCCN1Cc1ncccc1F [II-170, 7-(2-fluoro-4-(trifluoromethyl)phenyl)-4-((3-fluoropyridin-2-yl)methyl)-3,4-dihydrobenzo[f][1,4]oxazepin-5(2H)-one]
[1]
  inhibition at 1 µM: 66%
[2]; [3]
  inhibition at 1 µM: 36%
[2]; [4]
  inhibition at 1 µM: 31%

## Cc1cncc(CN2CCOc3ccc(-c4ccc(OC(F)(F)F)cc4)cc3C2=O)n1 [II-175, 4-((6-methylpyrazin-2-yl)methyl)-7-(4-(trifluoromethoxy)phenyl)-3,4-dihydrobenzo[f][1,4]oxazepin-5(2H)-one]
[1]
  inhibition at 1 µM: 53%
[2]; [3]
  inhibition at 1 µM: 21%
[2]; [4]
  inhibition at 1 µM: 16%

## O=C1c2cc(-c3ccc(C(F)(F)F)cc3)ccc2OCCN1Cc1ncccc1F [II-176, 4-((3-fluoropyridin-2-yl)methyl)-7-(4-(trifluoromethyl)phenyl)-3,4-dihydrobenzo[f][1,4]oxazepin-5(2H)-one]
[1]
  inhibition at 1 µM: 68%
[2]; [3]
  inhibition at 1 µM: 45%
[2]; [4]
  inhibition at 1 µM: 44%

## Cn1ccnc1CN1CCOc2ccc(-c3ccc(OC(F)(F)F)cc3)cc2C1=O [II-186, 4-((1-methyl-1H-imidazol-2-yl)methyl)-7-(4-(trifluoromethoxy)phenyl)-3,4-dihydrobenzo[f][1,4]oxazepin-5(2H)-one]
[1]
  inhibition at 1 µM: 55%
[2]; [3]
  inhibition at 1 µM: 20%
[2]; [4]
  inhibition at 1 µM: 30%

## O=C1c2cc(-c3ccc(OC(F)(F)F)cc3)ccc2OCCN1Cc1nccn1Cc1ccccc1 [II-187]
[1]
  inhibition at 1 µM: 62%
[2]; [3]
  inhibition at 1 µM: 9%
[2]; [4]
  inhibition at 1 µM: 21%

## O=C1c2cc(-c3ccc(OC(F)(F)F)cc3)ccc2OCCN1Cc1cn2ccccc2n1 [II-189, 4-(imidazo[1,2-a]pyridin-2-ylmethyl)-7-(4-(trifluoromethoxy)phenyl)-3,4-dihydrobenzo[f][1,4]oxazepin-5(2H)-one]
[1]
  inhibition at 1 µM: 53%
[2]; [3]
  inhibition at 1 µM: 23%
[2]; [4]
  inhibition at 1 µM: 28%

## Cn1cc(C(=O)N2CCOc3ccc(-c4ccc(OC(F)(F)F)cc4)cc3C2)cn1 [III-12, (1-methyl-1H-pyrazol-4-yl)(7-(4-(trifluoromethoxy)phenyl)-2,3-dihydrobenzo[f][1,4]oxazepin-4(5H)-yl)methanone]
[1]
  inhibition at 1 µM: 39%
[2]; [3]
  inhibition at 1 µM: 10%
[2]; [4]
  inhibition at 1 µM: 17%

## O=C(c1cc[nH]n1)N1CCOc2ccc(-c3ccc(OC(F)(F)F)cc3)cc2C1 [III-15, (1H-pyrazol-3-yl)(7-(4-(trifluoromethoxy)phenyl)-2,3-dihydrobenzo[f][1,4]oxazepin-4(5H)-yl)methanone]
[1]
  inhibition at 1 µM: 50%
[2]; [3]
  inhibition at 1 µM: 19%
[2]; [4]
  inhibition at 1 µM: 18%

## O=C(Cc1ccccn1)N1CCOc2ccc(-c3ccc(C(F)(F)F)cc3)cc2C1 [III-29, 2-(pyridin-2-yl)-1-(7-(4-(trifluoromethyl)phenyl)-2,3-dihydrobenzo[f][1,4]oxazepin-4(5H)-yl)ethanone]
[1]
  inhibition at 1 µM: 48%
[2]; [3]
  inhibition at 1 µM: 11%
[2]; [4]
  inhibition at 1 µM: 14%

## O=C1c2cc(-c3ccc(C(F)(F)F)s3)ccc2OCCN1Cc1ccccn1 [VI-31, 4-(pyridin-2-ylmethyl)-7-(5-(trifluoromethyl)thiophen-2-yl)-3,4-dihydrobenzo[f][1,4]oxazepin-5(2H)-one]
[1]
  inhibition at 1 µM: 61%
[2]; [3]
  inhibition at 1 µM: 50%
[2]; [4]
  inhibition at 1 µM: 42%

## O=C1c2cc(-c3ccc(C4CC4)s3)ccc2OCCN1Cc1ccccn1 [VI-32, 7-(5-cyclopropylthiophen-2-yl)-4-(pyridin-2-ylmethyl)-3,4-dihydrobenzo[f][1,4]oxazepin-5(2H)-one]
[1]
  inhibition at 1 µM: 66%
[2]; [3]
  inhibition at 1 µM: 28%
[2]; [4]
  inhibition at 1 µM: 26%

## O=C1c2nc(-c3ccc(OC(F)(F)F)cc3)ccc2OCCN1Cc1ccccc1 [XII-2, 4-benzyl-7-(4-(trifluoromethoxy)phenyl)-3,4-dihydropyrido[2,3-f][1,4]oxazepin-5(2H)-one]
[1]
  inhibition at 1 µM: 57%
[2]; [3]
  inhibition at 1 µM: 45%
[2]; [4]
  inhibition at 1 µM: 64%

## O=C1c2nc(-c3ccc(C(F)(F)F)cc3)ccc2OCCN1Cc1ccccc1 [XII-3, 4-benzyl-7-(4-(trifluoromethyl)phenyl)-3,4-dihydropyrido[2,3-f][1,4]oxazepin-5(2H)-one]
[1]
  inhibition at 1 µM: 44%
[2]; [3]
  inhibition at 1 µM: 51%
[2]; [4]
  inhibition at 1 µM: 79%

## COc1cccnc1CN1CCOc2cnc(-c3ccc(OC(F)(F)F)cc3)cc2C1=O [XII-10, 4-((3-methoxypyridin-2-yl)methyl)-7-(4-(trifluoromethoxy)phenyl)-3,4-dihydropyrido[4,3-f][1,4]oxazepin-5(2H)-one]
[1]
  inhibition at 1 µM: 45%
[2]; [3]
  inhibition at 1 µM: 13%
[2]; [4]
  inhibition at 1 µM: 20%

## O=C1c2cc(-c3ccc(OC(F)(F)F)cc3)ncc2OCCN1Cc1ncccc1F [XII-11, 4-((3-fluoropyridin-2-yl)methyl)-7-(4-(trifluoromethoxy)phenyl)-3,4-dihydropyrido[4,3-f][1,4]oxazepin-5(2H)-one]
[1]
  inhibition at 1 µM: 55%
[2]; [3]
  inhibition at 1 µM: 25%
[2]; [4]
  inhibition at 1 µM: 24%
